Legend:
Assay in all cases: KinaseProfiler Assay
Format in all cases: biochemical
[1] = biological target: cKit(D816H) (Homo sapiens, UniProt P10721, D816H); settings: read-out: cKit(D816H), % of Control
[2] = biological target: PI3K gamma (Homo sapiens, UniProt P48736); settings: 50 μg/ml
[3] = biological target: PKBβ (Homo sapiens, UniProt P31751); settings: read-out: PKBβ, % of Control
[4] = biological target: CDK5/p25 (Homo sapiens, UniProt Q00535); settings: read-out: CDK5/p25, % of Control
[5] = biological target: MSK2 (Homo sapiens, UniProt O75676); settings: read-out: MSK2, % of Control
[6] = biological target: CDK1/cyclinB (Homo sapiens, UniProt P06493); settings: read-out: CDK1/cyclinB, % of Control
[7] = biological target: T1, EphB1 (Homo sapiens, UniProt P54762); settings: read-out: EphB1, % of Control
T1 sequence (P54762 18-984): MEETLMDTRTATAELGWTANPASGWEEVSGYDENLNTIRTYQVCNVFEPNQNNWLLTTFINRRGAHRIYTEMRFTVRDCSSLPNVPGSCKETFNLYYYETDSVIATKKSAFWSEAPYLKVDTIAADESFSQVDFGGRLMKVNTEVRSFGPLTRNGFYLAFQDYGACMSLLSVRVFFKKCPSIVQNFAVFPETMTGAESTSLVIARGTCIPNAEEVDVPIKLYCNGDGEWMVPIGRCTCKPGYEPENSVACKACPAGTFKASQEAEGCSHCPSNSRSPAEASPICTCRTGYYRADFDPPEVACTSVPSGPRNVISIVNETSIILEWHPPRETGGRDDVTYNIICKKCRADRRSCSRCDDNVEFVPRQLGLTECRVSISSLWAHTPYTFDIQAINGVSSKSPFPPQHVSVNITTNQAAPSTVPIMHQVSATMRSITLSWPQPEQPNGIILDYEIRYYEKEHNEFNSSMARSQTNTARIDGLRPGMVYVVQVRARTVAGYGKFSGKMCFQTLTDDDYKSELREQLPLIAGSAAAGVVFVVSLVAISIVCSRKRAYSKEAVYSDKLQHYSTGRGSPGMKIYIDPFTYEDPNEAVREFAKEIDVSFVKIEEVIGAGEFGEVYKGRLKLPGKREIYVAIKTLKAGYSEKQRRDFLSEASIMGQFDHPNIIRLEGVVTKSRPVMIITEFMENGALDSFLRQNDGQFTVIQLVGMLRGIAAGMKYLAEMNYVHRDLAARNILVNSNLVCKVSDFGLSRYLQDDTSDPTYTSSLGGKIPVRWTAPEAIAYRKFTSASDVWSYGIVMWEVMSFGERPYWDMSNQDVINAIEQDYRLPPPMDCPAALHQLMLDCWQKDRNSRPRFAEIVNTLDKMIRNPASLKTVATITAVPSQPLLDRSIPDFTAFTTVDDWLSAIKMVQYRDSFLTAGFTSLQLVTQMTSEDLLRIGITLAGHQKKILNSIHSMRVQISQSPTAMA

[8] = biological target: MAPK1 (Homo sapiens, UniProt P27361); settings: read-out: MAPK1, % of Control
[9] = biological target: SGK (Homo sapiens, UniProt O00141); settings: 5 ug/ml; read-out: SGK, % of Control
[10] = biological target: CK1γ2 (Homo sapiens, UniProt P78368); settings: read-out: CK1γ2, % of Control
[11] = biological target: CDK3/cyclinE (Homo sapiens, UniProt Q00526); settings: 50 ug/ml; read-out: CDK3/cyclinE, % of Control
[12] = biological target: TrkB (Homo sapiens, UniProt Q16620); settings: read-out: TrkB, % of Control
[13] = biological target: MINK (Homo sapiens, UniProt Q8N4C8); settings: read-out: MINK, % of Control
[14] = biological target: CDK2/cyclinA (Homo sapiens, UniProt P24941); settings: read-out: CDK2/cyclinA, % of Control

Chain of MSK2 (O75676 whole entry): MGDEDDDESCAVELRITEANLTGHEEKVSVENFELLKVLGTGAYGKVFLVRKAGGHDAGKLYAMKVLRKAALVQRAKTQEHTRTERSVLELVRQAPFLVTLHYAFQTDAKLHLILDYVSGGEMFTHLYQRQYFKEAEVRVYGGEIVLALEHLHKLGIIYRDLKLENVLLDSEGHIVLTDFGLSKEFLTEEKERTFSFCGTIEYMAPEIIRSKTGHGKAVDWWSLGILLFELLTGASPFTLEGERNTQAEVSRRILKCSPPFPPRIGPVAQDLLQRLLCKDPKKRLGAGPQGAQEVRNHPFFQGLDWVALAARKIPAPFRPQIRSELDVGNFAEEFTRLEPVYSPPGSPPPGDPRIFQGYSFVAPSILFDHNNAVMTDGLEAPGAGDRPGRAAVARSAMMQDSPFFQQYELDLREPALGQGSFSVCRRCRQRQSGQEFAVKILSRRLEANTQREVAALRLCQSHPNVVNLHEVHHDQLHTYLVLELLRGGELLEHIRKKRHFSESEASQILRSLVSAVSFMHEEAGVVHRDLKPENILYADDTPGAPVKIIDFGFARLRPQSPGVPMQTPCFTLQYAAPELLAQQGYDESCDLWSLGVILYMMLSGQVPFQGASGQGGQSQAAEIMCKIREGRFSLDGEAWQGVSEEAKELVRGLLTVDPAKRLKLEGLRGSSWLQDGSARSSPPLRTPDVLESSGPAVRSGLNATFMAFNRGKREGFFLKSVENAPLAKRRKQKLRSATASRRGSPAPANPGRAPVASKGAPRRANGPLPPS
Chain of CK1γ2 (P78368 whole entry): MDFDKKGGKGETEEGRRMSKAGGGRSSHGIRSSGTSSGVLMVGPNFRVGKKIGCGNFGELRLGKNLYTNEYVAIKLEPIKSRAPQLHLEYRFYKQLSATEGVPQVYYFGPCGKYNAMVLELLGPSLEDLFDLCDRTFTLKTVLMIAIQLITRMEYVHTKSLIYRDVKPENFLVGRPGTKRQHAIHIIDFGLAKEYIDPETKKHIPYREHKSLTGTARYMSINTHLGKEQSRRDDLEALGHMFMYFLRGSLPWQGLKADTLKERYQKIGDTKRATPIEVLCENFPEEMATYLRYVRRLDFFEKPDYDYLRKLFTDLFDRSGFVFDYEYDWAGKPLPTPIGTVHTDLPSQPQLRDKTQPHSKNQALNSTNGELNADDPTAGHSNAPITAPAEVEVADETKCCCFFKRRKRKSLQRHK
Chain of TrkB (Q16620 32-822): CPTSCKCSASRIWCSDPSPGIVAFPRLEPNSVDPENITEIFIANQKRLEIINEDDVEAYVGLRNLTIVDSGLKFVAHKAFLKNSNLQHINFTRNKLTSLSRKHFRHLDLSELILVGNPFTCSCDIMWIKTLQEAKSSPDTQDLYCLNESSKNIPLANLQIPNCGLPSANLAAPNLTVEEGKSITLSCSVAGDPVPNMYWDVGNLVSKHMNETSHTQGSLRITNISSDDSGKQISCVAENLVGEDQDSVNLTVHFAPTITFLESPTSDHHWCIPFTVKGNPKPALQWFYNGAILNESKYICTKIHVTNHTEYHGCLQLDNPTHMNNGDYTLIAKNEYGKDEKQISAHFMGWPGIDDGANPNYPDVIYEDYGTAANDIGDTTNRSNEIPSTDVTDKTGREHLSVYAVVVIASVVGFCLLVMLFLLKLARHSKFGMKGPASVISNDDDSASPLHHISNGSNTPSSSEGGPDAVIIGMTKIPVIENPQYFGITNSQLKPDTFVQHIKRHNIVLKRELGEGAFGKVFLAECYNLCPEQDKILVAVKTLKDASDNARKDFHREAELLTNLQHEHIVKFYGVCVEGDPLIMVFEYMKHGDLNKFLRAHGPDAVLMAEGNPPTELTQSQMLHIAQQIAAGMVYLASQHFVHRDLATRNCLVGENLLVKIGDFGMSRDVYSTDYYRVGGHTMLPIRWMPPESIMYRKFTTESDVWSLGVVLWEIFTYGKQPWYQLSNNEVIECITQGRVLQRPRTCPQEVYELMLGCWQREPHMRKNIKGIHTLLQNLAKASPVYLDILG
Chain of MAPK1 (P27361 whole entry): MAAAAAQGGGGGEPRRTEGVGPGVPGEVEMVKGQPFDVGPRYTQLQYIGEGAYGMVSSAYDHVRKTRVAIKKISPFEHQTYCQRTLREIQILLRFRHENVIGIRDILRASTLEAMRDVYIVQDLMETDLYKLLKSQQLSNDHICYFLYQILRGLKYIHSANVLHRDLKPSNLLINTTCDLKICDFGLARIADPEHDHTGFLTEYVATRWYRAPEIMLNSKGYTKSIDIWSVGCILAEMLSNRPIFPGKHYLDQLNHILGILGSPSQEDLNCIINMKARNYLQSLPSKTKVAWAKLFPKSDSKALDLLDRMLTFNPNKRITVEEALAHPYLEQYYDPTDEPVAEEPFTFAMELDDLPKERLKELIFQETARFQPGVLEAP
Chain of PKBβ (P31751 whole entry): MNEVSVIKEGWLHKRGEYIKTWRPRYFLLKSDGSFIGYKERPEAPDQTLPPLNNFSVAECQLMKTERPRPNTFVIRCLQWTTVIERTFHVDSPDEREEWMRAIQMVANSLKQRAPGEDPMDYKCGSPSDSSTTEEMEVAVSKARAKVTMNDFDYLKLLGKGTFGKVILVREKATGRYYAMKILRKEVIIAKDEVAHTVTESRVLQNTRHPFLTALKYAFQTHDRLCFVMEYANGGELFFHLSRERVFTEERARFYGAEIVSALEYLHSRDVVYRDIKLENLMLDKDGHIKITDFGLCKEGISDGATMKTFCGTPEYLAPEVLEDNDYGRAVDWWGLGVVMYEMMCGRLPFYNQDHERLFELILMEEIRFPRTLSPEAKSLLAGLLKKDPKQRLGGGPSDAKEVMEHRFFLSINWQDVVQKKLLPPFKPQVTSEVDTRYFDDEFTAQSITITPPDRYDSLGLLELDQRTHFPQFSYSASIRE
Chain of cKit(D816H) (P10721 26-976 D816H): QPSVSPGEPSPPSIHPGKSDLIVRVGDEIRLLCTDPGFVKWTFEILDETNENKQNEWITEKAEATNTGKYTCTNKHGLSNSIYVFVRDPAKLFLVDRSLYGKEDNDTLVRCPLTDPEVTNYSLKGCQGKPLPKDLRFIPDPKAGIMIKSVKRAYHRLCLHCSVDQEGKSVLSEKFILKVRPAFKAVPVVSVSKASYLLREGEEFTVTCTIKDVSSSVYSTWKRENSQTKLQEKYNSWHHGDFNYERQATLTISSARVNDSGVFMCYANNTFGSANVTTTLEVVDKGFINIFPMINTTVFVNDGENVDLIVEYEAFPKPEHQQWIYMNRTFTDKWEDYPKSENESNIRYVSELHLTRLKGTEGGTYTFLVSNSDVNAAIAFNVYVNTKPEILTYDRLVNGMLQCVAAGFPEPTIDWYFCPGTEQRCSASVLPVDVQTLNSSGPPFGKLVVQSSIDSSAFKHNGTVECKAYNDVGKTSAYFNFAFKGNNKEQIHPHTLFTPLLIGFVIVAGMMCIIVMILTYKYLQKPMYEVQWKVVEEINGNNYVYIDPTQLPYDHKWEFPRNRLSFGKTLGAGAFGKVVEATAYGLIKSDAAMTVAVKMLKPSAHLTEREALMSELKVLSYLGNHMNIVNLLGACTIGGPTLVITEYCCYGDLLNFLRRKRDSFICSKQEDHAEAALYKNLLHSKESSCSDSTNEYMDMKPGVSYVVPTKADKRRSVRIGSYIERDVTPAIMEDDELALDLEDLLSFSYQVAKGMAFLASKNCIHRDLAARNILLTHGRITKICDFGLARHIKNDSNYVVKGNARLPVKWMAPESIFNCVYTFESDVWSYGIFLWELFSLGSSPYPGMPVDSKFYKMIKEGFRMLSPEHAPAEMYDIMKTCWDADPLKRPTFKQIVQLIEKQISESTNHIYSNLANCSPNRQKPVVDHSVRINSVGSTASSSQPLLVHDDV
Chain of CDK1/cyclinB (P06493 whole entry): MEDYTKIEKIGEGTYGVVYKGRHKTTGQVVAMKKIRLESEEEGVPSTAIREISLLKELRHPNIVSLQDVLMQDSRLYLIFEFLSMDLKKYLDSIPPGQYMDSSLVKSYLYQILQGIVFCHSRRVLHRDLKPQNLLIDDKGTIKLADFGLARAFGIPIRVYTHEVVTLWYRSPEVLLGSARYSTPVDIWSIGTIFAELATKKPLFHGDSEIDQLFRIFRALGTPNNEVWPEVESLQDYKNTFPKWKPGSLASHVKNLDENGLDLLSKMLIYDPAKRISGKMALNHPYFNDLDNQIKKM
Chain of CDK1/cyclinB (P14635 whole entry partner): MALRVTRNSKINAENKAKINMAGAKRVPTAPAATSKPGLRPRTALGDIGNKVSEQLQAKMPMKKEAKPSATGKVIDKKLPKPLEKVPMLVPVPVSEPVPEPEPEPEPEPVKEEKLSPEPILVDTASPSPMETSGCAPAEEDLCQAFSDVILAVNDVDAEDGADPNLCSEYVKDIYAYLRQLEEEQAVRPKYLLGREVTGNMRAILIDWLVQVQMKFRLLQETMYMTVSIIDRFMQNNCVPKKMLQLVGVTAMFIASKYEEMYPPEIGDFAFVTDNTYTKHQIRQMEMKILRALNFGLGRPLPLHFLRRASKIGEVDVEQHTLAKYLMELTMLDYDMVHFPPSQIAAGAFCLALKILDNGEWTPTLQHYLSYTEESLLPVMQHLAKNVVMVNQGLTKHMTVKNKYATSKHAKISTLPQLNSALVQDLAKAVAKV
Chain of SGK (O00141 whole entry): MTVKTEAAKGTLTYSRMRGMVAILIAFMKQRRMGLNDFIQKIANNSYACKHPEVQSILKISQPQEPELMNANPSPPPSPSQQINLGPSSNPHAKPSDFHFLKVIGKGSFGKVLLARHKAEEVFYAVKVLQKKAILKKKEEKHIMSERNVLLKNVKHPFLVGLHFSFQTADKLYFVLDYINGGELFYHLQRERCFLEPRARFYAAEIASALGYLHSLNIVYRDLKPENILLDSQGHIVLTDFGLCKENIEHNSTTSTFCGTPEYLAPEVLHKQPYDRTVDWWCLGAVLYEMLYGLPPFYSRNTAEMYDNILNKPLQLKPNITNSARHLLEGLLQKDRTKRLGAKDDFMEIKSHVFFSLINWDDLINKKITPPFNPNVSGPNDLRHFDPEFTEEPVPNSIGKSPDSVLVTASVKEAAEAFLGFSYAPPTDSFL

remaining activity at 1 µg/mL ([1]; 1 ug/ml): 94%
remaining activity at 5 µg/mL ([1]; 5 ug/ml): 45%
remaining activity at 25 µg/mL ([1]; 25 ug/ml): 14%
remaining activity at 1 µg/mL ([3]; 1 ug/ml): 146%
remaining activity at 5 µg/mL ([3]; 5 ug/ml): 102%
remaining activity at 25 µg/mL ([3]; 25 ug/ml): 1%
remaining activity at 50 µg/mL ([3]; 50 ug/ml): 8%
remaining activity at 25 µg/mL ([4]; 25 ug/ml): 24%
remaining activity at 50 µg/mL ([4]; 50 ug/ml): 87%
remaining activity at 1 µg/mL ([5]; 1 ug/ml): 126%
remaining activity at 5 µg/mL ([5]; 5 ug/ml): 61%
remaining activity at 25 µg/mL ([5]; 25 ug/ml): 8%
remaining activity at 50 µg/mL ([5]; 50 ug/ml): 19%
remaining activity at 1 µg/mL ([6]; 1 ug/ml): 118%
remaining activity at 5 µg/mL ([6]; 5 ug/ml): 103%
remaining activity at 25 µg/mL ([6]; 25 ug/ml): 46%
remaining activity at 50 µg/mL ([6]; 50 ug/ml): 18%
remaining activity at 1 µg/mL ([7]; 1 ug/ml): 92%
remaining activity at 25 µg/mL ([7]; 25 ug/ml): 175%
remaining activity at 50 µg/mL ([7]; 50 ug/ml): 161%
remaining activity at 5 µg/mL ([8]; 5 ug/ml): 64%
remaining activity at 25 µg/mL ([8]; 25 ug/ml): 19%
remaining activity at 50 µg/mL ([8]; 50 ug/ml): 17%
remaining activity at 5 µg/mL [9]: 84%
remaining activity at 1 µg/mL ([10]; 1 ug/ml): 92%
remaining activity at 5 µg/mL ([10]; 5 ug/ml): 48%
remaining activity at 25 µg/mL ([10]; 25 ug/ml): 30%
remaining activity at 50 µg/mL ([10]; 50 ug/ml): 12%
remaining activity at 50 µg/mL [11]: 8%
remaining activity at 1 µg/mL ([12]; 1 ug/ml): 95%
remaining activity at 5 µg/mL ([12]; 5 ug/ml): 89%
remaining activity at 25 µg/mL ([12]; 25 ug/ml): 58%
remaining activity at 50 µg/mL ([12]; 50 ug/ml): 3%
remaining activity at 1 µg/mL ([13]; 1 ug/ml): 42%
remaining activity at 5 µg/mL ([13]; 5 ug/ml): 10%
remaining activity at 25 µg/mL ([13]; 25 ug/ml): 5%
remaining activity at 50 µg/mL ([13]; 50 ug/ml): 7%
remaining activity at 1 µg/mL ([14]; 1 ug/ml): 107%
remaining activity at 5 µg/mL ([14]; 5 ug/ml): 96%
remaining activity at 25 µg/mL ([14]; 25 ug/ml): 57%
remaining activity at 50 µg/mL ([14]; 50 ug/ml): 6%
Compound: COc1cc(O)c(CC=C(C)C)c(O)c1C(=O)/C=C/c1ccc(O)cc1 [Xanthohumol, xanthohumol]
inhibition of PI3K-γ activity [2]: more inhibitory to PI3K-γ than to PI3K-β or PI3K-δ

From patent publication US20080051466A1, “Isoalpha acid based protein kinase modulation cancer treatment” (Metaproteomics, LLC, priority 2006, published 2008)
